Assay results: the NIST ThermoML archive (doi:10.1021/je100765j)

Assay: refractive index (Na D-line) (dimensionless); xn = mol fraction of the nth substance listed
Conditions: 101 kPa, Liquid, Standard Abbe refractometry

CC(C)CCl [1-chloro-2-methylpropane] + CC(C)OC(C)C
refractive index
Conditions | 283.15 K | 288.15 K | 293.15 K | 298.15 K | 303.15 K | 308.15 K | 313.15 K
x1 = 0.0549 | 1.37495 | 1.37221 | 1.36949 | 1.36663 | 1.36379 | 1.36095 | 1.35806
x1 = 0.091 | 1.3759 | 1.37316 | 1.37043 | 1.36757 | 1.36474 | 1.36188 | 1.359
x1 = 0.1977 | 1.37869 | 1.37595 | 1.37322 | 1.37038 | 1.36754 | 1.36469 | 1.36182
x1 = 0.2934 | 1.38128 | 1.37855 | 1.37581 | 1.37298 | 1.37015 | 1.3673 | 1.36444
x1 = 0.3911 | 1.38404 | 1.38131 | 1.37857 | 1.37575 | 1.37292 | 1.37008 | 1.36723
x1 = 0.5137 | 1.38762 | 1.38488 | 1.38213 | 1.37932 | 1.37649 | 1.37365 | 1.37081
x1 = 0.6034 | 1.39034 | 1.3876 | 1.38484 | 1.38205 | 1.37922 | 1.37638 | 1.37354
x1 = 0.6769 | 1.39263 | 1.38989 | 1.38713 | 1.38435 | 1.38152 | 1.37868 | 1.37585
x1 = 0.8059 | 1.3968 | 1.39405 | 1.39129 | 1.38852 | 1.38568 | 1.38285 | 1.38003
x1 = 0.9111 | 1.40038 | 1.39764 | 1.39487 | 1.39212 | 1.38928 | 1.38645 | 1.38364
x1 = 0.9646 | 1.40226 | 1.39951 | 1.39674 | 1.394 | 1.39116 | 1.38833 | 1.38553

CCCCCl [1-chlorobutane] + CC(C)OC(C)C
refractive index
Conditions | 283.15 K | 288.15 K | 293.15 K | 298.15 K | 303.15 K | 308.15 K | 313.15 K
x1 = 0.0466 | 1.37486 | 1.37213 | 1.36941 | 1.36656 | 1.36373 | 1.36088 | 1.35801
x1 = 0.0991 | 1.37637 | 1.37364 | 1.37092 | 1.36807 | 1.36525 | 1.3624 | 1.35953
x1 = 0.1918 | 1.37915 | 1.37643 | 1.37372 | 1.3709 | 1.36808 | 1.36524 | 1.3624
x1 = 0.32 | 1.38331 | 1.38059 | 1.37788 | 1.37509 | 1.37227 | 1.36944 | 1.36662
x1 = 0.4199 | 1.38643 | 1.38374 | 1.38104 | 1.37827 | 1.37544 | 1.37262 | 1.36983
x1 = 0.516 | 1.38968 | 1.38698 | 1.38428 | 1.38153 | 1.37872 | 1.37592 | 1.37315
x1 = 0.623 | 1.39338 | 1.39068 | 1.38799 | 1.38527 | 1.38246 | 1.37967 | 1.37693
x1 = 0.7154 | 1.39669 | 1.39399 | 1.3913 | 1.38859 | 1.3858 | 1.38301 | 1.38028
x1 = 0.8157 | 1.40037 | 1.39768 | 1.39499 | 1.39231 | 1.38954 | 1.38677 | 1.38407
x1 = 0.9098 | 1.40395 | 1.40125 | 1.39856 | 1.39594 | 1.39315 | 1.3904 | 1.38773
x1 = 0.9559 | 1.40572 | 1.40303 | 1.40034 | 1.3977 | 1.39493 | 1.39216 | 1.38952

CC(C)(C)Cl [2-chloro-2-methylpropane] + CC(C)OC(C)C
refractive index
Conditions | 283.15 K | 288.15 K | 293.15 K | 298.15 K | 303.15 K | 308.15 K | 313.15 K
x1 = 0.049 | 1.37426 | 1.37152 | 1.36878 | 1.36591 | 1.36307 | 1.36021 | 1.35731
x1 = 0.0996 | 1.37498 | 1.37223 | 1.36948 | 1.36661 | 1.36376 | 1.36089 | 1.35799
x1 = 0.1991 | 1.37645 | 1.37368 | 1.37091 | 1.36803 | 1.36516 | 1.36228 | 1.35936
x1 = 0.3212 | 1.37834 | 1.37555 | 1.37275 | 1.36986 | 1.36697 | 1.36407 | 1.36114
x1 = 0.4189 | 1.37994 | 1.37712 | 1.37431 | 1.3714 | 1.3685 | 1.36559 | 1.36263
x1 = 0.5148 | 1.38157 | 1.37874 | 1.3759 | 1.37299 | 1.37006 | 1.36713 | 1.36416
x1 = 0.6213 | 1.38348 | 1.38063 | 1.37775 | 1.37483 | 1.37189 | 1.36894 | 1.36595
x1 = 0.7152 | 1.38524 | 1.38237 | 1.37947 | 1.37654 | 1.37357 | 1.37061 | 1.3676
x1 = 0.8138 | 1.38719 | 1.3843 | 1.38137 | 1.37843 | 1.37543 | 1.37245 | 1.36942
x1 = 0.9079 | 1.38915 | 1.38623 | 1.38327 | 1.38031 | 1.3773 | 1.3743 | 1.37125
x1 = 0.9552 | 1.39016 | 1.38723 | 1.38426 | 1.3813 | 1.37827 | 1.37526 | 1.3722

CCC(C)Cl (stereo not drawn) [2-chlorobutane] + CC(C)OC(C)C
refractive index
Conditions | 283.15 K | 288.15 K | 293.15 K | 298.15 K | 303.15 K | 308.15 K | 313.15 K
x1 = 0.0519 | 1.37477 | 1.37203 | 1.36931 | 1.36644 | 1.36361 | 1.36077 | 1.35788
x1 = 0.0988 | 1.37587 | 1.37314 | 1.37041 | 1.36756 | 1.36473 | 1.36189 | 1.359
x1 = 0.2006 | 1.37839 | 1.37566 | 1.37294 | 1.37009 | 1.36727 | 1.36443 | 1.36155
x1 = 0.3211 | 1.38155 | 1.37883 | 1.3761 | 1.37326 | 1.37044 | 1.3676 | 1.36473
x1 = 0.4201 | 1.38427 | 1.38154 | 1.37882 | 1.37599 | 1.37317 | 1.37033 | 1.36746
x1 = 0.532 | 1.38745 | 1.38472 | 1.38199 | 1.37917 | 1.37636 | 1.37353 | 1.37067
x1 = 0.6244 | 1.39016 | 1.38743 | 1.3847 | 1.38189 | 1.37908 | 1.37626 | 1.3734
x1 = 0.726 | 1.39324 | 1.39051 | 1.38778 | 1.38498 | 1.38218 | 1.37936 | 1.37651
x1 = 0.8163 | 1.39608 | 1.39336 | 1.39063 | 1.38784 | 1.38505 | 1.38224 | 1.3794
x1 = 0.8817 | 1.39819 | 1.39548 | 1.39275 | 1.38997 | 1.38719 | 1.38438 | 1.38154
x1 = 0.9634 | 1.40097 | 1.39825 | 1.39552 | 1.39276 | 1.38997 | 1.38716 | 1.38434
